Data as given in patent US8927717B1, “Thiochromeno[2,3-c]quinolin-12-one derivatives, preparation method and application thereof” (National Defense Medical Center, priority 2014, dated 2015).

Legend:
RPMI-8226 = assay type: cell-based; conditions: 10^−5 molar; for Growth percent: RPMI-8226; for Growth percent RPMI-8226: Leukemia, 48 hours, SRB
HOP-92 = assay type: cell-based; conditions: 10^−5 molar; for Growth percent: HOP-92
NCI-H226 = assay type: cell-based; conditions: 10^−5 molar; for Growth percent: NCI-H226; for Growth percent NCI-H226: Non-small cell lung cancer, 48 hours, SRB
HCC-2998 = assay type: cell-based; conditions: 10^−5 molar; for Growth percent: HCC-2998; for Growth percent HCC-2998: Colon cancer, 48 hours, SRB
SF-268 = assay type: cell-based; conditions: 10^−5 molar; for Growth percent: SF-268; for Growth percent SF-268: CNS cancer, 48 hours, SRB
SF-295 = assay type: cell-based; conditions: 10^−5 molar; for Growth percent: SF-295; for Growth percent SF-295: CNS cancer, 48 hours, SRB
SF-539 = assay type: cell-based; conditions: 10^−5 molar; for Growth percent: SF-539
U251 = assay type: cell-based; conditions: 10^−5 molar; for Growth percent: U251; for Growth percent U251: CNS cancer, 48 hours, SRB
MALME-3M = assay type: cell-based; conditions: 10^−5 molar; for Growth percent: MALME-3M; for Growth percent MALME-3M: Melanoma, 48 hours, SRB
SK-MEL-2 = assay type: cell-based; conditions: 10^−5 molar; for Growth percent: SK-Mel-2
SK-MEL-28 = assay type: cell-based; conditions: 10^−5 molar; for Growth percent: SK-MEL-28; for Growth percent SK-MEL-28: Melanoma, 48 hours, SRB
UACC-257 = assay type: cell-based; conditions: 10^−5 molar; for Growth percent: UACC-257; for Growth percent UACC-257: Melanoma, 48 hours, SRB
IGROV1 = assay type: cell-based; conditions: 10^−5 molar; for Growth percent: IGROV1; for Growth percent IGROV1: Ovarian cancer, 48 hours, SRB
OVCAR-3 = assay type: cell-based; conditions: 10^−5 molar; for Growth percent OVCAR-3: Ovarian cancer, 48 hours, SRB
786-0 = assay type: cell-based; conditions: 10^−5 molar; for Growth percent: 786-0; for Growth percent 786-0: Renal cancer, 48 hours, SRB
A498 = assay type: cell-based; conditions: 10^−5 molar; for Growth percent: A498; for Growth percent A498: Renal cancer, 48 hours, SRB
HS 578T = assay type: cell-based; conditions: 10^−5 molar; for Growth percent: HS 578T; for Growth percent HS 578T: Breast cancer, 48 hours, SRB
MDA-MB-486 = assay type: cell-based; conditions: 10^−5 molar; for Growth percent: MDA-MB-486; for Growth percent MDA-MB-486: Breast cancer, 48 hours, SRB
OVCAR-4 = assay type: cell-based; conditions: 10^−5 molar; for Growth percent: OVCAR-4; for Growth percent OVCAR-4: Ovarian cancer, 48 hours, SRB
CAKI-1 = assay type: cell-based; conditions: 10^−5 molar; for Growth percent: CAKI-1; for Growth percent CAKI-1: Renal cancer, 48 hours, SRB

| Structure (SMILES) | Growth percent (RPMI-8226) | Growth percent (HOP-92) | Growth percent (NCI-H226) | Growth percent (HCC-2998) | Growth percent (SF-268) | Growth percent (SF-295) | Growth percent (SF-539) | Growth percent (U251) | Growth percent (MALME-3M) | Growth percent (SK-MEL-2) | Growth percent (SK-MEL-28) | Growth percent (UACC-257) | Growth percent (IGROV1) | Growth percent (786-0) | Growth percent (A498) | Growth percent (HS 578T) | Growth percent (MDA-MB-486) | melting point | Growth percent (OVCAR-4) | Growth percent (CAKI-1) | further results |
| --- | --- | --- | --- | --- | --- | --- | --- | --- | --- | --- | --- | --- | --- | --- | --- | --- | --- | --- | --- | --- | --- |
| O=c1c2cc(Cl)ccc2sc2c(NCCN3CCOCC3)nc3ccccc3c12 [Compound N16, 10-Chloro-6-((2-morpholinoethyl)amino)-12H-thiochromeno[2,3-c]quinolin-12-one] | 92.20% | 58.79% | 94.09% | 90.51% | 79.49% | 102.17% | 76.72% | 76.34% | 78.79% | 94.52% | 98.56% | 106.52% | 74.11% | 83.16% | 80.54% | 89.65% | 74.34% | 189 to 190 °C |  |  | Growth percent (OVCAR-3; OVCAR-3): 97.14% |
| O=c1c2cc(Cl)ccc2sc2c(NCc3ccc4c(c3)OCO4)nc3ccccc3c12 [Compound N27, 6-((Benzo[d][1,3]dioxol-5-ylmethyl)amino)-10-chloro-12H-thiochromeno[2,3-c]quinolin-12-one] | 96.35% | 45.39% | 53.50% |  | 93.24% | 94.39% | 77.12% | 81.03% | 81.64% | 95.57% | 88.24% |  | 67.81% | 95.83% | 75.91% | 70.49% | 60.47% | 205 to 206 °C | 53.73% | 75.09% |  |
| O=c1c2cc(Cl)ccc2sc2c(NCCO)nc3ccccc3c12 [Compound N9, 10-Chloro-6-(2-ethanolamino)-12H-thiochromeno[2,3-c]quinolin-12-one] |  |  |  |  |  |  |  |  |  |  |  |  |  |  |  |  |  |  |  |  | Growth percent RPMI-8226 (RPMI-8226): 83.81%; Growth percent HOP-92 (HOP-92; Non-small cell lung cancer, 48 hours, SRB): 63.17%; Growth percent NCI-H226 (NCI-H226): 83.55%; Growth percent HCC-2998 (HCC-2998): 101.55%; Growth percent SF-268 (SF-268): 95.06%; Growth percent SF-295 (SF-295): 92.50%; Growth percent SF-539 (SF-539; CNS cancer, 48 hours, SRB): 90.56%; Growth percent U251 (U251): 84.10%; Growth percent MALME-3M (MALME-3M): 104.86%; Growth percent SK-MEL-2 (SK-MEL-2; Melanoma, 48 hours, SRB): 86.80%; Growth percent SK-MEL-28 (SK-MEL-28): 100.76%; Growth percent UACC-257 (UACC-257): 89.33%; Growth percent IGROV1 (IGROV1): 88.51%; Growth percent OVCAR-3 (OVCAR-3): 103.35%; Growth percent OVCAR-4 (OVCAR-4): 102.67%; Growth percent 786-0 (786-0): 104.43%; Growth percent A498 (A498): 65.78%; Growth percent CAKI-1 (CAKI-1): 89.29%; Growth percent HS 578T (HS 578T): 83.24%; Growth percent MDA-MB-486 (MDA-MB-486): 39.59% |
| O=c1c2cc(Cl)ccc2sc2c(NCCc3ccccc3)nc3ccccc3c12 [Compound N30, 10-Chloro-6-(phenethylamino)-12H-thiochromeno[2,3-c]quinolin-12-one] | 77.36% | 73.02% | 77.00% | 113.77% | 101.32% | 95.46% | 97.86% | 96.78% | 122.61% | 106.33% | 98.94% | 109.29% |  | 108.00% | 83.22% | 87.62% | 63.11% | 151 to 152 °C | 79.53% | 81.04% |  |
| CC(C)CC(C)Nc1nc2ccccc2c2c(=O)c3cc(Cl)ccc3sc12 (stereo not drawn) [Compound N13, 10-Chloro-6-((4-methylpentan-2-yl)amino)-12H-thiochromeno[2,3-c]quinolin-12-one] |  |  |  |  |  |  |  |  |  |  |  |  |  |  |  |  |  | 176 to 177 °C |  |  | Growth percent RPMI-8226 (RPMI-8226): 97.78%; Growth percent NCI-H226 (NCI-H226): 87.55%; Growth percent HCC-2998 (HCC-2998): 112.26%; Growth percent SF-268 (SF-268): 105.52%; Growth percent SF-295 (SF-295): 95.92%; Growth percent U251 (U251): 105.12%; Growth percent MALME-3M (MALME-3M): 95.93%; Growth percent SK-MEL-28 (SK-MEL-28): 106.87%; Growth percent UACC-257 (UACC-257): 114.40%; Growth percent IGROV1 (IGROV1): 74.77%; Growth percent OVCAR-3 (OVCAR-3): 115.22%; Growth percent OVCAR-4 (OVCAR-4): 86.07%; Growth percent 786-0 (786-0): 99.74%; Growth percent A498 (A498): 75.01%; Growth percent CAKI-1 (CAKI-1): 86.38%; Growth percent HS 578T (HS 578T): 89.33%; Growth percent MDA-MB-486 (MDA-MB-486): 96.02% |
| COc1ccc(CCNc2nc3ccccc3c3c(=O)c4cc(Cl)ccc4sc23)cc1 [Compound N31, 10-Chloro-6-((4-methoxyphenethyl)amino)-12H-thiochromeno[2,3-c]quinolin-12-one] | 99.98% | 67.57% | 72.39% | 105.27% | 100.14% | 95.31% | 95.67% | 98.72% | 99.74% | 113.12% | 99.41% | 98.66% | 86.73% | 100.71% | 99.56% | 87.49% | 53.93% | 214 to 215 °C | 79.00% | 85.75% |  |
